From article PMC11783601, “Analogue-Sensitive Inhibition of Histone Demethylases Uncovers Member-Specific Function in Ribosomal Protein Synthesis” (Journal of the American Chemical Society, 2025)
“Also recorded” adds a separate entry of the source.

Columns and labels:
Experiment in all cases: H3K9me3 Western blot of nuclear extracts of transfected HEK293T cells
Type in all cases: cell-based
full-length KDM4B-F186A = biological target: T1, full-length KDM4B-F186A (Homo sapiens, UniProt O94953, F186A); details: for inhibition of KDM4B-F186A (asKDM4B) H3K9me3 demethylation: 10 μM concentration; for inhibition of KDM4B-F186A H3K9me3 demethylation, dose-dependent: 10, 20 µM
T1 construct: we generated the full-length as mutants of the remaining KDM4s; host or cells: HEK293T
T1 sequence (O94953 1-1096 F186A): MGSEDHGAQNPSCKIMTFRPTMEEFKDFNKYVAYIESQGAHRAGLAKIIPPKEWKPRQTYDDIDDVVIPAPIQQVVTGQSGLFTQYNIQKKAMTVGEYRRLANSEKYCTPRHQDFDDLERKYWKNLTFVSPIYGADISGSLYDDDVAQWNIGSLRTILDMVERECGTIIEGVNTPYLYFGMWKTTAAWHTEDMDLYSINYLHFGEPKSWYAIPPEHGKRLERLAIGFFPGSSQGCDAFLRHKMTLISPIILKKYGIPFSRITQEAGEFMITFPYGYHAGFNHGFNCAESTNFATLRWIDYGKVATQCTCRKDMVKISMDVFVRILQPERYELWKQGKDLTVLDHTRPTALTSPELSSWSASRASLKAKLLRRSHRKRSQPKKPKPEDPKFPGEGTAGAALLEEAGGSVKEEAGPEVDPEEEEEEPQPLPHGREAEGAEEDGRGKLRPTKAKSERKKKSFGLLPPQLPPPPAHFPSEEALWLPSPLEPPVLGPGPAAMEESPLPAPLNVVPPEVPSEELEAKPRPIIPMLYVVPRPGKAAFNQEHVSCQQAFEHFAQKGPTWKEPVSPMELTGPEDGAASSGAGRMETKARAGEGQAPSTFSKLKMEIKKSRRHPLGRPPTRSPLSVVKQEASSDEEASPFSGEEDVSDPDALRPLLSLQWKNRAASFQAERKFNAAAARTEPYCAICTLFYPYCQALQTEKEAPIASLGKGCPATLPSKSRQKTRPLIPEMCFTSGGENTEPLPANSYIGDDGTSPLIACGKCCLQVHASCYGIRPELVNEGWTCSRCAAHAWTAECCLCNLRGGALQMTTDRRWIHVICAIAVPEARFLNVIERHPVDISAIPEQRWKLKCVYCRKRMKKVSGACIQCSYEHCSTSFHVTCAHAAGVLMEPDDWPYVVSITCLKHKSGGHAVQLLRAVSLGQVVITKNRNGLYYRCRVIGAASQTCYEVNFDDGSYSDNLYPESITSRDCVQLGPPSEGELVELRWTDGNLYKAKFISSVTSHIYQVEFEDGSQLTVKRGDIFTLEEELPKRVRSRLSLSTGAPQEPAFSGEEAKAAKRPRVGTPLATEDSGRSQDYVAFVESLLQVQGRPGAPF
Text: (§1) KDM4B and C are structurally homologous to KDM4A, and KDM4D and E have a catalytic pocket near-identical to that of KDM4A but lack the Tudor and PHD domains known to bind trimethylated lysine in histones (Figure 1B).[11] HEK293T cells were transfected with full-length wild type KDM4B-E or their respective mutants. Western blot analysis of nuclear preparations using the H3K9me3 antibody confirmed all of the proteins to be catalytically active (Figures 4G–N and S32–S35).
(§2) KDM4A mammalian expression plasmid in CMV vector was purchased from Addgene (plasmid #24180). KDM4B mammalian expression plasmid in CMV vector was purchased from Addgene (plasmid #24181). KDM4C mammalian expression plasmid in CMV vector was purchased from Addgene (plasmid #24214). KDM4D mammalian expression plasmid in pReciever vector was purchased from Genecopoia (EX-Z0917-M06.) KDME mammalian expression plasmid in pRP-EXP was designed from Vector Builder. The KDM4A-F185A, KDM4B-F186A, KDM4C -F187A, KDM4D-F189A, and KDM4E F186A mutants were generated using Quikchange Lightening Mutagenesis Kit (Agilent) according to manufacturer’s protocol and confirmed by Sanger […]
(§3) HEK293T/17 cells (ATCC) were grown in Delbucco’s Modified Eagle Medium (DMEM) (Corning) with 10% FBS at 37 °C (Corning), 5% CO2, and 95% relative humidity in a 6-well cell culture plate. When cells reached 90% confluency, 3 µg of plasmid and 6 µg lipofectamine 2000 (Invitrogen: 11668019) were incubated with 100 µL OptiMem. After 5 minutes the plasmid and lipofectamine were combined and incubated at room temperature for 20 minutes and added to the cell culture disk. Cells were returned to the incubator to grow for 4-6 hours. This was followed by treatment of compound treatment (n-octyl IOX121,22 or a specific NOG ester) at indicated concentrations and further culture for specified time. The media was removed, and cells were washed with ice cold PBS (Corning), then trypsinized with TrpLE Express (Gibco). The trypsinization reaction was quenched with DMEM 10% FBS and cells were pelleted then washed once with ice cold PBS. The nuclear extracts were generated by first resuspending the cell pellets in 700 µL nuclear isolation buffer (15 mM Tris pH 7.5, 60 mM KCl, 15 mM NaCl, 5 mM MgCl2, 1 mM CaCl2, 1mm DTT, 2 mM Na3Van, 250 mM sucrose, 1X Pierce protease inhibitor (Thermo Fisher #PIA32955), 1 mM PMSF, 0.3% NP40 diluted to volume with MilliQ H2O) and incubated on ice for 5 minutes.23 The samples were then pelleted by centrifugation at 2000 rcf for 5 minutes.
(§4) The supernatant was removed, and the pelleted nuclei were resuspended in 200 µL Pierce IP lysis buffer (Thermo Fisher #87787) containing 1X Pierce protease inhibitor and left on ice for 5 minutes. The nuclei were then sonicated at 100% amp for 5 minutes (pulsed 1 minute “on”, 20 seconds “rest”) using a Qsonica-Q700, cuphorn sonicator. The samples were pelleted once again at 2000 rcf for 5 minutes and the supernatant containing the nuclear extracts were collected. MgCl2 (1M) solution was added to each sample give a final concentration of 6mM. […]
(§5) Prism with the corresponding bars representing the mean and standard deviation of the population.
(§6) For the time dependent imaging, cells containing the transfected KDM4A mutant were identified by their HA signal. These cells were used to create a selection which was then imposed onto the respective H3K9me3 or BrdU images. The mean signal was then measured for H3K9me3 or BrdU only within the cells expressing the KDM4A mutant. To compare changes in H3K9me3 or BrdU between trials, the quantification values were normalized to the mean signal at t=0. The normalized, mean signal and error for H3K9me3 or BrdU were then plotted in GraphPad Prism.
(§7) 21. General protocol for Western blotting
(§8) Assay samples were mixed with appropriate volume of 4X Laemmli Dye (Bio-Rad), heated at 95 °C for 5 minutes and loaded onto 4–12% Criterion™ XT Bis-Tris protein gels (Bio-Rad #3450123) or in-house prepared SDS-polyacrylamide gel and subjected to electrophoresis […]

full-length KDM4C-F187A = biological target: T2, full-length KDM4C-F187A (Homo sapiens, UniProt Q9H3R0, F187A); details: 25-200 µM
T2 construct: we generated the full-length as mutants of the remaining KDM4s; host or cells: HEK293T
T2 sequence (Q9H3R0 whole entry F187A): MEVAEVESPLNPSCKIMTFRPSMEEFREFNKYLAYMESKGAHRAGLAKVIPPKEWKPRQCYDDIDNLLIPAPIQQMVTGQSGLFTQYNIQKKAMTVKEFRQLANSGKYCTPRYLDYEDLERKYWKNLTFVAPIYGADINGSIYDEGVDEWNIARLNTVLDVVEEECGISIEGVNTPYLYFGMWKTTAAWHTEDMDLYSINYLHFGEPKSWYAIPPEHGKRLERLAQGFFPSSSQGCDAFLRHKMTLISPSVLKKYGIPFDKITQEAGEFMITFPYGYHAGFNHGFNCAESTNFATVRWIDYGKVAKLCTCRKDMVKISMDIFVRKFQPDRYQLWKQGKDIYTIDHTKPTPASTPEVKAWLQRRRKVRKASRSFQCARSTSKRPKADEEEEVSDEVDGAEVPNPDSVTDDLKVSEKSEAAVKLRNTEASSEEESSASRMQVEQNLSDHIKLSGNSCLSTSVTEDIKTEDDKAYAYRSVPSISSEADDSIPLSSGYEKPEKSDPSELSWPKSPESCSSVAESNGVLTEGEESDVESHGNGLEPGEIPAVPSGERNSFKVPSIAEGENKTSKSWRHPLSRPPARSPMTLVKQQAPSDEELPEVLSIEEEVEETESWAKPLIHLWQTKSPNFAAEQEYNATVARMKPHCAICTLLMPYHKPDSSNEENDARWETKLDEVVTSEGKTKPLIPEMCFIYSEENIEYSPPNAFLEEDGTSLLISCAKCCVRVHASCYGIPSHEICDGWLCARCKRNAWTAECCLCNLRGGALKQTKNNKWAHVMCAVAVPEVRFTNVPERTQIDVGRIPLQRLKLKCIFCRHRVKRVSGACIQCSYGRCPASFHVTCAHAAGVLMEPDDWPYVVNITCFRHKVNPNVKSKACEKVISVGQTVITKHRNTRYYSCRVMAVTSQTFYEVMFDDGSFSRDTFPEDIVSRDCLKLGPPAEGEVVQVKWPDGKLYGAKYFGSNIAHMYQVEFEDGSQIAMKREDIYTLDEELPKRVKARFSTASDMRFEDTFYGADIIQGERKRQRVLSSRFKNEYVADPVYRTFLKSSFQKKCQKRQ
Text: as §1, §2, §3, §4, §5, §6, §7, §8

full-length KDM4D-F189A = biological target: T3, full-length KDM4D-F189A (Homo sapiens, UniProt Q6B0I6, F189A); details: 25-200 µM
T3 construct: we generated the full-length as mutants of the remaining KDM4s; host or cells: HEK293T
T3 sequence (Q6B0I6 whole entry F189A): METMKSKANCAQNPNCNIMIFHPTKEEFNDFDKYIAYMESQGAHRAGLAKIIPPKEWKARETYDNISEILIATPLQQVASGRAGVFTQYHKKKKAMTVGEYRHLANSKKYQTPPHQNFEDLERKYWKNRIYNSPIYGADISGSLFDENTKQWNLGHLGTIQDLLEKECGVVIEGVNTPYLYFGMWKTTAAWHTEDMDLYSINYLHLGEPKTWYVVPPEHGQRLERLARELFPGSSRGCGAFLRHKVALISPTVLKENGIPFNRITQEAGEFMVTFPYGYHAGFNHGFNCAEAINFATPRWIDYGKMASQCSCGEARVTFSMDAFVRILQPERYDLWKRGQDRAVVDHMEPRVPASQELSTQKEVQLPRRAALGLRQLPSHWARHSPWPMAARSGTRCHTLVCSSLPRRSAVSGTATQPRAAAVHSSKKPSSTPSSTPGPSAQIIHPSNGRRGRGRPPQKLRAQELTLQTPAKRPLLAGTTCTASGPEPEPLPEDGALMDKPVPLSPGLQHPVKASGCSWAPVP
Text: as §1, §2, §3, §4, §5, §6, §7, §8

full-length KDM4E-F186A = biological target: T4, full-length KDM4E-F186A (Homo sapiens, UniProt B2RXH2, F186A); details: 25-200 µM
T4 construct: we generated the full-length as mutants of the remaining KDM4s; host or cells: HEK293T
T4 sequence (B2RXH2 whole entry F186A): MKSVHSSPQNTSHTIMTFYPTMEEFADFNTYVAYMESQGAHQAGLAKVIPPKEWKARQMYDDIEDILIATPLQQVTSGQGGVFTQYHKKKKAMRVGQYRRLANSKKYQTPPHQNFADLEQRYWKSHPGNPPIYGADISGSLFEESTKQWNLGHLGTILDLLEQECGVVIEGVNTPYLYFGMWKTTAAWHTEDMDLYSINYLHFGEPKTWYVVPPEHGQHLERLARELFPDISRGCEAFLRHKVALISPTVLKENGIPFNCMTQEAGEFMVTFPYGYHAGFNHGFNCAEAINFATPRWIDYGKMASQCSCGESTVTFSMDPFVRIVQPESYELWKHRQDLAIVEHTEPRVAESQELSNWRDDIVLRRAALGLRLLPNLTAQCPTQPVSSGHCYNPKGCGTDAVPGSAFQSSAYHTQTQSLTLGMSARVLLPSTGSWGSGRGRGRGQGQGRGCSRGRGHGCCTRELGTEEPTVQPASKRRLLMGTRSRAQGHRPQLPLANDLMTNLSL
Text: as §1, §2, §3, §4, §5, §6, §7, §8

CCCCCCCCOC(=O)C(=O)NC(CC(C)C)C(=O)O [6A, L-Leu octyl-ester NOG]
inhibition of KDM4B-F186A (asKDM4B) H3K9me3 demethylation (full-length KDM4B-F186A): robust inhibition
inhibition of KDM4B-F186A H3K9me3 demethylation, dose-dependent (full-length KDM4B-F186A): Dose-dependent inhibition; also recorded: significantly reduced
inhibition of KDM4C-F187A H3K9me3 demethylation (full-length KDM4C-F187A): Dose-dependent inhibition; also recorded: significantly reduced
inhibition of KDM4D-F189A H3K9me3 demethylation (full-length KDM4D-F189A): Dose-dependent inhibition; also recorded: significantly reduced
inhibition of KDM4E-F186A H3K9me3 demethylation (full-length KDM4E-F186A): Dose-dependent inhibition; also recorded: significantly reduced

CC(C)CC(NC(=O)C(=O)OCc1cccc(C(F)(F)F)c1)C(=O)O [6B, L-Leu TFMB-ester NOG]
inhibition of KDM4B-F186A (asKDM4B) H3K9me3 demethylation (full-length KDM4B-F186A): robust inhibition
inhibition of KDM4B-F186A H3K9me3 demethylation, dose-dependent (full-length KDM4B-F186A): Dose-dependent inhibition; also recorded: significantly reduced
inhibition of KDM4C-F187A H3K9me3 demethylation (full-length KDM4C-F187A): significantly reduced
inhibition of KDM4D-F189A H3K9me3 demethylation (full-length KDM4D-F189A): Inhibition; also recorded: significantly reduced
inhibition of KDM4E-F186A H3K9me3 demethylation (full-length KDM4E-F186A): significantly reduced
